Results as given in PubChem BioAssay AID1259407 (Chemical Carcinogenesis Research Information System (CCRIS), 2018).
Active and inactive are the calls of the source. No rule for the calls is given here.

Test system: CCRIS mutagenicity, Ames/micronucleus/aberration tests
Test: CCRIS mutagenicity studies
[1] = Test System: AMES SALMONELLA TYPHIMURIUM, Strain/Indicator: TA97, Metabolic Activation: NONE, Method: PREINCUBATION
[2] = Test System: AMES SALMONELLA TYPHIMURIUM, Strain/Indicator: TA100, Metabolic Activation: NONE, Method: PREINCUBATION
[3] = Test System: AMES SALMONELLA TYPHIMURIUM, Strain/Indicator: TA100, Metabolic Activation: NONE, Method: STANDARD PLATE
[4] = Test System: AMES SALMONELLA TYPHIMURIUM, Strain/Indicator: TA100, Metabolic Activation: RAT, LIVER, S-9, AROCLOR 1254, Method: STANDARD PLATE
[5] = Test System: AMES SALMONELLA TYPHIMURIUM, Strain/Indicator: TA1535, Metabolic Activation: NONE, Method: PREINCUBATION
[6] = Test System: AMES SALMONELLA TYPHIMURIUM, Strain/Indicator: TA1535, Metabolic Activation: NONE, Method: STANDARD PLATE
[7] = Test System: AMES SALMONELLA TYPHIMURIUM, Strain/Indicator: TA1535, Metabolic Activation: RAT, LIVER, S-9, AROCLOR 1254, Method: STANDARD PLATE
[8] = Test System: AMES SALMONELLA TYPHIMURIUM, Strain/Indicator: TA98, Metabolic Activation: RAT, LIVER, S-9, AROCLOR 1254, Method: STANDARD PLATE
[9] = Test System: AMES SALMONELLA TYPHIMURIUM, Strain/Indicator: TA98, Metabolic Activation: NONE, Method: PREINCUBATION
[10] = Test System: AMES SALMONELLA TYPHIMURIUM, Strain/Indicator: TA98, Metabolic Activation: NONE, Method: STANDARD PLATE
[11] = Test System: AMES SALMONELLA TYPHIMURIUM, Strain/Indicator: TA98, Metabolic Activation: RAT, LIVER, S-9, PHENOBARBITAL, Method: PREINCUBATION
[12] = Test System: AMES SALMONELLA TYPHIMURIUM, Strain/Indicator: TA98, Metabolic Activation: S-9, Method: STANDARD PLATE
[13] = Test System: AMES SALMONELLA TYPHIMURIUM, Strain/Indicator: TA100, Metabolic Activation: RAT, LIVER, S-9, PHENOBARBITAL, Method: PREINCUBATION
[14] = Test System: AMES SALMONELLA TYPHIMURIUM, Strain/Indicator: TA100, Metabolic Activation: S-9, Method: STANDARD PLATE
[15] = Test System: AMES SALMONELLA TYPHIMURIUM, Strain/Indicator: TA102, Metabolic Activation: NONE, Method: STANDARD PLATE

Measured: mutagenic call

OCC(Cl)CCl (stereo not drawn)
active: Test System: AMES SALMONELLA TYPHIMURIUM, Strain/Indicator: TA97, Metabolic Activation: HAMSTER, LIVER, S-9, AROCLOR 1254 (10%), Method: PREINCUBATION active; positive | [1] active; positive | Test System: AMES SALMONELLA TYPHIMURIUM, Strain/Indicator: TA97, Metabolic Activation: RAT, LIVER, S-9, AROCLOR 1254 (10%), Method: PREINCUBATION active; positive | Test System: AMES SALMONELLA TYPHIMURIUM, Strain/Indicator: TA98, Metabolic Activation: HAMSTER, LIVER, S-9, AROCLOR 1254 (10%), Method: PREINCUBATION active; positive | Test System: AMES SALMONELLA TYPHIMURIUM, Strain/Indicator: TA98, Metabolic Activation: RAT, LIVER, S-9, AROCLOR 1254 (10%), Method: PREINCUBATION active; positive | Test System: AMES SALMONELLA TYPHIMURIUM, Strain/Indicator: TA100, Metabolic Activation: HAMSTER, LIVER, S-9, AROCLOR 1254 (10%), Method: PREINCUBATION active; positive | [2] active; positive | [3] active; positive | Test System: AMES SALMONELLA TYPHIMURIUM, Strain/Indicator: TA100, Metabolic Activation: RAT, LIVER, S-9, AROCLOR 1254 (10%), Method: PREINCUBATION active; positive | [4] active; positive | Test System: AMES SALMONELLA TYPHIMURIUM, Strain/Indicator: TA100, Metabolic Activation: RAT, LIVER, S-9, KANECHLOR 500, Method: PREINCUBATION active; positive | Test System: AMES SALMONELLA TYPHIMURIUM, Strain/Indicator: TA1535, Metabolic Activation: HAMSTER, LIVER, S-9, AROCLOR 1254 (10%), Method: PREINCUBATION active; positive | [5] active; positive | [6] active; positive | Test System: AMES SALMONELLA TYPHIMURIUM, Strain/Indicator: TA1535, Metabolic Activation: RAT, LIVER, S-9, AROCLOR 1254 (10%), Method: PREINCUBATION active; positive | [7] active; positive

Cc1ccc2ccc3c(ccc4c5cccc(C)c5ccc43)c2c1
inactive: Test System: AMES SALMONELLA TYPHIMURIUM, Strain/Indicator: TA97, Metabolic Activation: RAT, LIVER, S-9, AROCLOR 1254, Method: STANDARD PLATE inactive; negative | [8] inactive; negative | [4] inactive; negative | Test System: AMES SALMONELLA TYPHIMURIUM, Strain/Indicator: TA102, Metabolic Activation: RAT, LIVER, S-9, AROCLOR 1254, Method: STANDARD PLATE inactive; negative | Test System: AMES SALMONELLA TYPHIMURIUM, Strain/Indicator: TA104, Metabolic Activation: RAT, LIVER, S-9, AROCLOR 1254, Method: STANDARD PLATE inactive; negative | Test System: AMES SALMONELLA TYPHIMURIUM, Strain/Indicator: TA1537, Metabolic Activation: RAT, LIVER, S-9, AROCLOR 1254, Method: STANDARD PLATE inactive; negative

Oc1cccc(O)c1O
active: End Point: IN VITRO CHROMOSOMAL ABERRATIONS, Test System: V79 CELLS, Metabolic Activation: NONE active; positive; active at higher levels at all ph values | [1] active; positive | Test System: AMES SALMONELLA TYPHIMURIUM, Strain/Indicator: TA97, Metabolic Activation: RAT, LIVER, S-9, PHENOBARBITAL, Method: PREINCUBATION active; positive | [11] active; positive | [12] active; positive | [2] active; positive | [13] active; positive | [14] active; positive | [15] active; positive | Test System: AMES SALMONELLA TYPHIMURIUM, Strain/Indicator: TA2638, Metabolic Activation: NONE, Method: STANDARD PLATE active; positive | Test System: E. COLI, Strain/Indicator: WP2 (PKM101), Metabolic Activation: NONE, Method: STANDARD PLATE active; positive | Test System: E. COLI, Strain/Indicator: WP2 UVRA (PKM101), Metabolic Activation: NONE, Method: STANDARD PLATE active; positive
inactive: Test System: AMES SALMONELLA TYPHIMURIUM, Strain/Indicator: TA98, Metabolic Activation: NONE inactive; negative | [9] inactive; negative | [10] inactive; negative | Test System: AMES SALMONELLA TYPHIMURIUM, Strain/Indicator: TA98, Metabolic Activation: RAT, LIVER, S-9, AROCLOR 1254, Method: PREINCUBATION inactive; negative | Test System: AMES SALMONELLA TYPHIMURIUM, Strain/Indicator: TA98, Metabolic Activation: S-9 inactive; negative | [3] inactive; negative | Test System: AMES SALMONELLA TYPHIMURIUM, Strain/Indicator: TA102, Metabolic Activation: RAT, LIVER, S-9, AROCLOR 1254, Method: PREINCUBATION inactive; negative | [5] inactive; negative | Test System: AMES SALMONELLA TYPHIMURIUM, Strain/Indicator: TA1535, Metabolic Activation: RAT, LIVER, S-9, AROCLOR 1254, Method: PREINCUBATION inactive; negative

COc1cc(CCC(C)=O)ccc1O
inactive: [10] inactive; negative | [8] inactive; negative | [3] inactive; negative | [4] inactive; negative | [6] inactive; negative | [7] inactive; negative | Test System: AMES SALMONELLA TYPHIMURIUM, Strain/Indicator: TA1538, Metabolic Activation: NONE, Method: STANDARD PLATE inactive; negative | Test System: AMES SALMONELLA TYPHIMURIUM, Strain/Indicator: TA1538, Metabolic Activation: RAT, LIVER, S-9, AROCLOR 1254, Method: STANDARD PLATE inactive; negative | Test System: E. COLI, Strain/Indicator: CM561 LEXA, Metabolic Activation: NONE, Method: STANDARD PLATE inactive; negative | Test System: E. COLI, Strain/Indicator: CM611 UVRA/LEXA, Metabolic Activation: NONE, Method: STANDARD PLATE inactive; negative | Test System: E. COLI, Strain/Indicator: WP2 UVRA, Metabolic Activation: NONE, Method: STANDARD PLATE inactive; negative

COc1ccc2cc(CCC(C)=O)ccc2c1
inactive: Test System: AMES SALMONELLA TYPHIMURIUM, Strain/Indicator: TA97, Metabolic Activation: NONE, Method: STANDARD PLATE inactive; negative | Test System: AMES SALMONELLA TYPHIMURIUM, Strain/Indicator: TA97, Metabolic Activation: S-9, Method: STANDARD PLATE inactive; negative | [10] inactive; negative | [12] inactive; negative | [3] inactive; negative | [14] inactive; negative | [15] inactive; negative | Test System: AMES SALMONELLA TYPHIMURIUM, Strain/Indicator: TA102, Metabolic Activation: S-9, Method: STANDARD PLATE inactive; negative

c1ccc2scnc2c1
inactive: Test System: MOUSE LYMPHOMA, Strain/Indicator: L5178Y (TK+/TK-), Metabolic Activation: NONE, Method: SUSPENSION/PLATE inactive; negative. reevaluation of results: negative | Test System: MOUSE LYMPHOMA, Strain/Indicator: L5178Y (TK+/TK-), Metabolic Activation: RAT, LIVER, S-9, AROCLOR 1254, Method: SUSPENSION/PLATE inactive; negative. reevaluation of results: negative

O=S(=O)(O)c1ccc2cc(Oc3ccc4cc(S(=O)(=O)O)ccc4c3)ccc2c1
inactive: [9] inactive; negative | [11] inactive; negative | [2] inactive; negative | [13] inactive; negative
